Source: PubChem BioAssay (NCI)
Several values for one entry are separate records, joined by “and”; a condition that tells them apart may be missing. Identical values can stand only once.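 Where inhibition never reached the appropriate level, the endpoint shown equals the highest concentration tested. Otherwise, values were interpolated linearly from a five-concentration, 48-hour dose response in 96-well plates. GI50 is the concentration that inhibits growth by half. TGI: total growth inhibition.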

Key:
Experiment in all cases: NCI tumour cell line growth inhibition, 48 h
MDA-N = tested on: MDA-N
DMS 114 small cell lung = tested on: DMS 114 small cell lung
SNB-78 CNS = tested on: SNB-78 CNS
DMS 273 small cell lung = tested on: DMS 273 small cell lung
LXFL 529 NSCLC = tested on: LXFL 529 NSCLC
KM20L2 colon = tested on: KM20L2 colon
HOP-18 NSCLC = tested on: HOP-18 NSCLC
M19-MEL melanoma = tested on: M19-MEL melanoma
RXF-631 renal = tested on: RXF-631 renal
P388/ADR leukemia = tested on: P388/ADR leukemia
P388 leukemia = tested on: P388 leukemia
SN12K1 renal = tested on: SN12K1 renal

`CCN(CC)CCCC(C)Nc1ccnc2cc(Cl)ccc12` (configuration not stated) was tested, and the TGI (MDA-N) was 33.9 µM, the TGI (DMS 114 small cell lung) was 56.4 µM and the TGI (SNB-78 CNS) was greater than 100 µM. For the same compound, the TGI (DMS 273 small cell lung) was 87 µM, the TGI (LXFL 529 NSCLC) was greater than 100 µM and the TGI (KM20L2 colon) was 44.5 µM.
`CCCCCOCC(O)CO` (configuration not stated) gave a TGI (DMS 114 small cell lung) greater than 100 µM, a TGI (SNB-78 CNS) greater than 100 µM and a TGI (DMS 273 small cell lung) greater than 100 µM. It also gave a TGI (HOP-18 NSCLC) greater than 100 µM and a TGI (KM20L2 colon) greater than 100 µM.
Compound `COc1cc2c3cc1Oc1c(OC)c(OC)cc4c1C(=NCC4)Cc1ccc(cc1)Oc1cc(ccc1O)C[C@H]3N(C)CC2` has a TGI (MDA-N) of 31 µM.
`N#CC12CCC1C1CCCCC12N1CCSCC1` (configuration not stated) showed a TGI (DMS 114 small cell lung) greater than 100 µM, a TGI (SNB-78 CNS) greater than 100 µM and a TGI (DMS 273 small cell lung) greater than 100 µM. The TGI (LXFL 529 NSCLC) was greater than 100 µM, the TGI (HOP-18 NSCLC) was greater than 100 µM and the TGI (KM20L2 colon) was greater than 100 µM. For the same compound, the TGI (M19-MEL melanoma) was greater than 100 µM.
In the case of `CCC(=O)N1C(=O)OCC1C(C)C` (configuration not stated), the TGI (RXF-631 renal) is reported as greater than 100 µM, the TGI (DMS 114 small cell lung) is reported as greater than 100 µM and the TGI (SNB-78 CNS) is reported as greater than 100 µM. It also gave a TGI (DMS 273 small cell lung) greater than 100 µM, a TGI (LXFL 529 NSCLC) greater than 100 µM and a TGI (HOP-18 NSCLC) greater than 100 µM. It also gave a TGI (KM20L2 colon) greater than 100 µM and a TGI (M19-MEL melanoma) greater than 100 µM.
Compound `COc1ccc(/C(=N\NC(=O)NN)C(c2ccc(OC)cc2)C2(O)C(=O)Nc3c(Cl)cc(Cl)cc32)cc1` (configuration not stated) has a TGI (RXF-631 renal) greater than 100 µM, a TGI (DMS 114 small cell lung) greater than 100 µM and a TGI (SNB-78 CNS) greater than 100 µM. It also gave a TGI (LXFL 529 NSCLC) greater than 100 µM, a TGI (HOP-18 NSCLC) greater than 100 µM and a TGI (KM20L2 colon) greater than 100 µM. The TGI (M19-MEL melanoma) was greater than 100 µM.
`C[C@H]1/C(=C/C(=O)OCCN(C)C)CC[C@H]2[C@H]1C(=O)C[C@H]1C(C)(C)[C@@H](O)CC[C@]21C` was tested, and the TGI (MDA-N) was greater than 100 µM.
`COc1cc(Oc2c(C)c(Cl)c(OC)c(Cl)c2OC)c2c(c1Cl)COC2=O` gave a TGI (MDA-N) of 69.2 µM.
`N#CC(C(=O)C(=O)Nc1ccccc1)c1ccccc1` (configuration not stated) was tested, and the TGI (DMS 273 small cell lung) was greater than 100 µM, the TGI (LXFL 529 NSCLC) was greater than 100 µM and the TGI (KM20L2 colon) was greater than 100 µM. It also gave a TGI (M19-MEL melanoma) greater than 100 µM.
`CC(C)N1CCN(c2ccncc2S(=O)(=O)N2CCCCC2)CC1` was tested, and the TGI (MDA-N) was greater than 100 µM.
For `COc1cc(/C=C(\NC(=O)c2ccccc2)c2nc3ccc4c(c3[nH]2)C(=O)c2ccccc2C4=O)cc(OC)c1OC`, the TGI (RXF-631 renal) was greater than 100 µM, the TGI (DMS 114 small cell lung) was greater than 100 µM and the TGI (SNB-78 CNS) was greater than 100 µM. It also gave a TGI (DMS 273 small cell lung) greater than 100 µM, a TGI (LXFL 529 NSCLC) greater than 100 µM and a TGI (KM20L2 colon) greater than 100 µM. The TGI (M19-MEL melanoma) was greater than 100 µM.
In the case of `O=C1CSC(=S)N1c1ccco1`, the TGI (MDA-N) is reported as 45.4 µM.
With `O=C(Nc1cccc2c1C(=O)c1c(NC(=O)c3ccccc3)ccc(Nc3cccc4c3C(=O)c3ccccc3C4=O)c1C2=O)c1ccccc1` the TGI (RXF-631 renal) was greater than 100 µM, the TGI (DMS 114 small cell lung) was greater than 100 µM and the TGI (SNB-78 CNS) was greater than 100 µM. For the same compound, the TGI (DMS 273 small cell lung) was greater than 100 µM, the TGI (LXFL 529 NSCLC) was greater than 100 µM and the TGI (HOP-18 NSCLC) was greater than 100 µM. The TGI (KM20L2 colon) was greater than 100 µM and the TGI (M19-MEL melanoma) was greater than 100 µM.
`CC(C)C12Cc3c(ccc4ccccc34)OC1(C)Oc1ccc3ccccc3c1C2` (configuration not stated) showed a TGI (DMS 114 small cell lung) greater than 100 µM, a TGI (SNB-78 CNS) greater than 100 µM and a TGI (DMS 273 small cell lung) greater than 100 µM. It also gave a TGI (LXFL 529 NSCLC) greater than 100 µM and a TGI (KM20L2 colon) greater than 100 µM.
With `BrC(Br)=C1C(=C(Br)Br)C(Br)C1Br` (configuration not stated) the TGI (MDA-N) was 1.92 µM, the TGI (DMS 114 small cell lung) was 0.552 µM and the TGI (SNB-78 CNS) was 3.54 µM. For the same compound, the TGI (DMS 273 small cell lung) was 1.25 µM, the TGI (LXFL 529 NSCLC) was 1.85 µM and the TGI (HOP-18 NSCLC) was 9.19 µM. The TGI (KM20L2 colon) was 3.04 µM and the TGI (M19-MEL melanoma) was 1.99 µM.
In the case of `COc1cc(-c2nccc3cc(OC)c(OC)cc23)ccc1O`, the TGI (RXF-631 renal) is reported as greater than 100 µM, the TGI (SNB-78 CNS) is reported as greater than 100 µM and the TGI (DMS 273 small cell lung) is reported as greater than 100 µM. For the same compound, the TGI (LXFL 529 NSCLC) was greater than 100 µM, the TGI (HOP-18 NSCLC) was greater than 100 µM and the TGI (KM20L2 colon) was greater than 100 µM. The TGI (M19-MEL melanoma) was greater than 100 µM.
`O=C(O)C[C@@H](Cl)[C@H](NC(=O)OCc1ccccc1)C(=O)O` was tested, and the TGI (DMS 114 small cell lung) was greater than 100 µM, the TGI (SNB-78 CNS) was greater than 100 µM and the TGI (DMS 273 small cell lung) was greater than 100 µM. The TGI (LXFL 529 NSCLC) was greater than 100 µM, the TGI (HOP-18 NSCLC) was greater than 100 µM and the TGI (KM20L2 colon) was greater than 100 µM. For the same compound, the TGI (M19-MEL melanoma) was greater than 100 µM.
In the case of `C=C1CC2(CC(c3ccccc3Cl)OC(c3ccccc3Cl)C2)OC1=O` (configuration not stated), the TGI (MDA-N) is reported as 3.86 µM.
With `CSCS(=O)C[C@H](CO)NC(=O)/C=C/c1c(C)[nH]c(=O)[nH]c1=O` (some centres not stated) the TGI (RXF-631 renal) was 14.7 µM, the GI50 (DMS 114 small cell lung) was 1.7 µM and the TGI (DMS 114 small cell lung) was 6.61 µM and 3.1 µM. For the same compound, the GI50 (SNB-78 CNS) was 0.919 µM, the TGI (SNB-78 CNS) was 5.91 µM and 2.74 µM and the GI50 (DMS 273 small cell lung) was 3.38 µM. For the same compound, the TGI (DMS 273 small cell lung) was 28.1 µM and 4.54 µM, the TGI (LXFL 529 NSCLC) was 7.65 µM and the GI50 (HOP-18 NSCLC) was 1.22 µM. The TGI (HOP-18 NSCLC) was > 30.8 µM and 5.85 µM, the GI50 (KM20L2 colon) was 2.07 µM and the TGI (KM20L2 colon) was 12 µM and 4.35 µM. For the same compound, the TGI (P388/ADR leukemia) was 7.12 µM, the GI50 (M19-MEL melanoma) was 2.38 µM and the TGI (M19-MEL melanoma) was 15.2 µM and 3.32 µM. It also gave a TGI (P388 leukemia) of 1.78 µM and a TGI (SN12K1 renal) of 4.42 µM.
